Tests used:
[1] = biological target: T1, Syk (Homo sapiens, UniProt P43405); test: Syk Biochemical Assay (ADP-Glo luminescence); details: ATP 40 μM final, 60 minutes, read-out: SYK Biochem IC50
T1 construct: purchased Promega
Procedure: Compounds were serially diluted in 100% DMSO, prior to an intermediate dilution in water. In a low volume white 384-well Proxiplate (Perkin Elmer), 1 μL of compound (0.4% final DMSO) was added to 3 μL of 10 ng/well Syk (Promega) and 0.2 mg/mL Poly-E4Y1 substrate (Promega) in assay buffer (final 40 mM Tris-HCl pH 7.4, 20 mM MgCl2, 0.1 mg/mL BSA) for 5 minutes. The reaction was initiated by addition of 1 μL of ATP (40 μM final) and allowed to proceed for 60 minutes at room temperature. The reaction was terminated by addition of 5 μL of ADP-Glo Reagent Mix (Promega) containing 1 mM MgCl2 for 45 minutes at room temperature. 10 μL of Kinase Detection Reagent (Promega) was added and incubated for 10 minutes at room temperature, before luminescence was measured using an Ensight Multimode Plate Reader (Perkin Elmer).

[2] = biological target: T2, Ba/F3-Syk cells (Homo sapiens, UniProt P43405); test: Ba/F3 Proliferation Assay, Ba/F3-Syk cells (Resazurin); type: cell-based; details: 48-hour incubation
T2 construct: fused on or other part: Possible but unprinted fusion partner: TEL (ETV6), the usual partner for Ba/F3 lines transformed by Syk; Nothing on a partner is printed

[3] = tested on: Ba/F3-WT (wild type) cells; test: Ba/F3 Proliferation Assay, Ba/F3-WT (wild type) cells with mIL-3 (Resazurin); type: cell-based; details: Mus musculus, BaF3, 48 h, Ba/F3-WT cells +mIL-3, 48-hour incubation

| SMILES | IC50 [1] [nM] | EC50 [2] [nM] | EC50 [3] [nM] |
| --- | --- | --- | --- |
| CC1(C)CNC[C@@H](COc2nc(-c3cnn(C4CC4)c3)cc3ncccc23)O1 [Compound 2.46, 7-(1-cyclopropyl-1H-pyrazol-4-yl)-5-{[(2S)-6,6-dimethylmorpholin-2-yl]methoxy}-1,6-naphthyridine] | 19 | 65 | 3430 |
| CC(C)(C)n1cc(-c2cc3ncccc3c(OC[C@@H]3CNCCCO3)n2)cn1 [Compound 2.49, 7-(1-tert-butyl-1H-pyrazol-4-yl)-5-{[(2S)-1,4-oxazepan-2-yl]methoxy}-1,6-naphthyridine] | 71 | 47.1 | 3050 |
| Cn1ccc(-c2cc3ncccc3c(OC[C@@H]3CNCCCO3)n2)c1 [Compound 2.52, 7-(1-methyl-1H-pyrrol-3-yl)-5-{[(2S)-1,4-oxazepan-2-yl]methoxy}-1,6-naphthyridine] | 22.1 | 57.4 | 9830 |
| CC1(C)CNC[C@@H](COc2nc(-c3ccn(C(C)(C)C)c3)cc3ncccc23)O1 [Compound 2.57, 7-(1-tert-butyl-1H-pyrrol-3-yl)-5-{[(2S)-6,6-dimethylmorpholin-2-yl]methoxy}-1,6-naphthyridine] | 10 | 21.6 | > 10000 |
| CC(C)(C)n1ccc(-c2cc3ncccc3c(OC[C@@H]3CNCCO3)n2)c1 [Compound 2.58, 7-(1-tert-butyl-1H-pyrrol-3-yl)-5-{[(2S)-morpholin-2-yl]methoxy}-1,6-naphthyridine] | 9.6 | 25.4 | 6710 |
| Cn1ccc(-c2cc3ncccc3c(OC[C@@H]3CNCC4(CC4)O3)n2)c1 [Compound 2.60, 7-(1-methyl-1H-pyrrol-3-yl)-5-{[(5S)-4-oxa-7-azaspiro[2.5]octan-5-yl]methoxy}-1,6-naphthyridine] | 24.6 | 26.6 | 4070 |
| CC(C)(C)n1cc(-c2cc3ncccc3c(OC[C@@H]3CNCC4(CC4)O3)n2)cn1 [Compound 2.63, 7-(1-tert-butyl-1H-pyrazol-4-yl)-5-{[(5S)-4-oxa-7-azaspiro[2.5]octan-5-yl]methoxy}-1,6-naphthyridine] | 26.4 | 20.6 | 2870 |
| CC(C)(C)n1ccc(-c2cc3ncccc3c(OC[C@@H]3CNCCCO3)n2)c1 [Compound 2.69, 7-(1-tert-butyl-1H-pyrrol-3-yl)-5-{[(2S)-1,4-oxazepan-2-yl]methoxy}-1,6-naphthyridine] | 30.1 | 13.5 | > 10000 |
| C[C@@H]1CNC[C@@H](COc2nc(-c3cnn(C)c3)cc3ncccc23)O1 [Compound 2.76, 7-(1-methyl-1H-pyrazol-4-yl)-5-{[(2S,6R)-6-methylmorpholin-2-yl]methoxy}-1,6-naphthyridine] | 17.6 | 44.8 | 2760 |
| CC(C)[C@@H]1CNC[C@@H](COc2nc(-c3cnn(C(C)(C)C)c3)cc3ncccc23)O1 [Compound 2.98, 7-(1-tert-butyl-1H-pyrazol-4-yl)-5-{[(2S,6R)-6-(propan-2-yl)morpholin-2-yl]methoxy}-1,6-naphthyridine] | 28.3 | 18.6 | 846 |
| CC(C)(C)n1cc(-c2cc3ncccc3c(OC[C@@H]3CNC[C@@H](C(F)F)O3)n2)cn1 [Compound 2.99, 7-(1-tert-butyl-1-pyrazol-4-yl)-5-{[(2S,6S)-6-(difluoromethyl)morpholin-2-yl]methoxy}-1,6-naphthyridine] | 21.4 | 17.8 | 1010 |
| CC(C)(C)[C@H]1CNC[C@@H](COc2nc(-c3cnn(C(C)(C)C)c3)cc3ncccc23)O1 [Compound 2.100, 7-(1-tert-butyl-1H-pyrazol-4-yl)-5-{[(2S,6S)-6-tert-butylmorpholin-2-yl]methoxy}-1,6-naphthyridine] | 278 | 362 | 3010 |
| CC(C)(C)[C@@H]1CNC[C@@H](COc2nc(-c3cnn(C(C)(C)C)c3)cc3ncccc23)O1 [Compound 2.101, 7-(1-tert-butyl-1H-pyrazol-4-yl)-5-{[(2S,6R)-6-tert-butylmorpholin-2-yl]methoxy}-1,6-naphthyridine] | 40 | 25.4 | 628 |
| CC(C)(C)n1cc(-c2cc3ncccc3c(OC[C@@H]3CNC[C@H](C4CC4)O3)n2)cn1 [Compound 2.102, 7-(1-tert-butyl-1H-pyrazol-4-yl)-5-{[(2S,6S)-6-cyclopropylmorpholin-2-yl]methoxy}-1,6-naphthyridine] | 12.9 | 11.7 | 1070 |
| CC(C)(C)n1cc(-c2cc3ncccc3c(OC[C@@H]3CNC[C@@H](C4CC4)O3)n2)cn1 [Compound 2.103, 7-(1-tert-butyl-1H-pyrazol-4-yl)-5-{[(2S,6R)-6-cyclopropylmorpholin-2-yl]methoxy}-1,6-naphthyridine] | 30.5 | 32.7 | 985 |
| CC(C)[C@H]1CNC[C@@H](COc2nc(-c3cnn(C(C)(C)C)c3)cc3ncccc23)O1 [Compound 2.104, 7-(1-tert-butyl-1H-pyrazol-4-yl)-5-{[(2S,6S)-6-(propan-2-yl)morpholin-2-yl]methoxy}-1,6-naphthyridine] | 16.6 | 33.1 | 1570 |
| CC(C)(C)n1cc(-c2cc3ncccc3c(OC[C@@H]3CNC[C@H](C(F)F)O3)n2)cn1 [Compound 2.105, 7-(1-tert-butyl-1H-pyrazol-4-yl)-5-{[(2S,6R)-6-(difluoromethyl)morpholin-2-yl]methoxy}-1,6-naphthyridine] | 6.21 | 31.1 | 1550 |
| CC1(C)CNC[C@@H](COc2cc(-c3cnn(C(C)(C)C)c3)cc3ncccc23)O1 [Compound 3.2, 7-(1-tert-butyl-1H-pyrazol-4-yl)-5-{[(2S)-6,6-dimethylmorpholin-2-yl]methoxy} quinoline] | 11.8 | 23.5 | 2370 |
| CC(C)n1cc(-c2cc(OC[C@@H]3CNCCO3)c3cccnc3c2)cn1 [Compound 3.4, 5-{[(2S)-morpholin-2-yl]methoxy}-7-[1-(propan-2-yl)-1H-pyrazol-4-yl]quinoline] | 29.3 | 47.4 | 926 |
| CC1(C)CNC[C@@H](COc2cc(-c3cnn(C4CC4)c3)cc3ncccc23)O1 [Compound 3.8, 7-(1-cyclopropyl-1H-pyrazol-4-yl)-5-{[(2S)-6,6-dimethylmorpholin-2-yl]methoxy}quinoline] | 23.7 | 50.9 | 1970 |
| CC(C)(C)n1cc(-c2cc(OC[C@@H]3CNCCCO3)c3cccnc3c2)cn1 [Compound 3.14, 7-(1-tert-butyl-1H-pyrazol-4-yl)-5-{[(2S)-1,4-oxazepan-2-yl]methoxy}quinoline] | 57.1 | 54.5 | 6490 |
| CC(C)(C)n1ccc(-c2cc(OC[C@@H]3CNCCO3)c3cccnc3c2)c1 [Compound 3.15, 7-(1-tert-butyl-1H-pyrrol-3-yl)-5-{[(2S)-morpholin-2-yl]methoxy}quinoline] | 39.6 | 30.4 | 5840 |
| Cn1ccc(-c2cc(OC[C@@H]3CNCC4(CC4)O3)c3cccnc3c2)c1 [Compound 3.17, 7-(1-methyl-1H-pyrrol-3-yl)-5-{[(5S)-4-oxa-7-azaspiro[2.5]octan-5-yl]methoxy}quinoline] | 43.7 | 51.8 | 2220 |
| Cn1cc(-c2cc(OC[C@@H]3CNCC4(CC4)O3)c3cccnc3c2)cn1 [Compound 3.19, 7-(1-methyl-1H-pyrazol-4-yl)-5-{[(5S)-4-oxa-7-azaspiro[2.5]octan-5-yl]methoxy}quinoline] | 51.1 | 99.1 | 6800 |
| CC(C)n1cc(-c2cc(OC[C@@H]3CNC[C@@H](C)O3)c3cccnc3c2)cn1 [Compound 3.23, 5-{[(2S,6R)-6-methylmorpholin-2-yl]methoxy}-7-[1-(propan-2-yl)-1H-pyrazol-4-yl]quinoline] | 12.6 | 12.1 | 941 |
| C[C@@H]1CNC[C@@H](COc2cc(-c3ccn(C)c3)cc3ncccc23)O1 [Compound 3.24, 7-(1-methyl-1H-pyrrol-3-yl)-5-{[(2S,6R)-6-methylmorpholin-2-yl]methoxy}quinoline] | 16.4 | 28.2 | 2260 |
| FC(F)Cn1ccc(-c2cc3ncccc3c(OC[C@@H]3CNCCO3)n2)c1 [Compound 6.5, 7-[1-(2,2-difluoroethyl)-1H-pyrrol-3-yl]-5-{[(2S)-morpholin-2-yl]methoxy}-1,6-naphthyridine] | 14.2 | 63 | 2140 |
| COCCn1ccc(-c2cc3ncccc3c(OC[C@@H]3CNCCO3)n2)c1 [Compound 6.10, 7-[1-(2-methoxyethyl)-1H-pyrrol-3-yl]-5-{[(2S)-morpholin-2-yl]methoxy}-1,6-naphthyridine] | 21.3 | 106 | 1980 |
| c1cnc2cc(-c3ccn(C4COC4)c3)nc(OC[C@@H]3CNCCO3)c2c1 [Compound 6.11, 5-{[(2S)-morpholin-2-yl]methoxy}-7-[1-(oxetan-3-yl)-1H-pyrrol-3-yl]-1,6-naphthyridine] | 24.6 | 30.7 | 1680 |
